Results published in patent US11000033B2, “Ketone or oxime compound, and herbicide” (NISSAN CHEMICAL CORPORATION, priority 2014, dated 2021).

Columns and labels:
Format in all cases: in vivo
Scirpus juncoides [1] = assay: Test Example 2: herbicidal activity, application during weed generation in submerged conditions (symbol B); details: Table 23; application herbicide amount 320 g/ha; grade 0-5 by criteria of Test Example 1
In short: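 Read-out: herbicidal effect on each species rated on a visual scale 3 weeks after treatment. Plants were raised together from seed in flooded alluvial soil (4 cm water) at 25° C. to 30° C. and treated at one to two leaves by water-surface application of diluted emulsion.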

transplanted rice plant = assay: Test Example 1: effect on crop, application before weed generation in submerged conditions (symbol a); details: application herbicide amount 320 g/ha
In short: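 Alluvial soil pots flooded to 4 cm water, sown with Echinochloa oryzacola, Scirpus juncoides and Monochoria vaginalis, then transplanted with 2.5 leaf stage rice seedlings; pre-emergence application. Greenhouse 25° C. to 30° C.; scored 0–5 by herbicidal ratio 3 weeks after application.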

[2] = test system: Echinochloa crus-galli var. crus-galli; assay: Test Example 5: herbicidal effect by foliage application, plastic box (symbol H); details: 320 g/ha, 3 weeks after application
In short: (§1)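 Effect is rated 3 weeks after a foliar spray of water-diluted emulsion concentrate at a predetermined herbicide amount. Plants had grown 14 days in a 25° C. to 30° C. greenhouse from seed in sterilized diluvial soil.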

Alopecurus myosuroides [3] = assay: Test Example 5: herbicidal effect by foliage application, plastic box (symbol J); details: 320 g/ha, 3 weeks after application
In short: as §1

[4] = test system: Echinochloa oryzacola Vasing.; assay: Test Example 1: herbicidal activity, application before weed generation in submerged conditions (symbol A); details: application herbicide amount 320 g/ha
In short: (§2)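 Flooded alluvial soil (4 cm water) was mixed-sown with the three weed species, and 2.5-leaf rice seedlings were transplanted. On sowing day, a water-diluted emulsion at a predetermined rate was applied to the water surface. After 3 weeks in a 25–30 °C greenhouse, effect was scored 0–5.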

Monochoria vaginalis = assay: Test Example 1: herbicidal activity, application before weed generation in submerged conditions (symbol C); details: application herbicide amount 320 g/ha
In short: as §2

Setaria viridis = assay: Test Example 4: herbicidal effect by soil treatment (symbol G); details: application herbicide amount 320 g/ha
In short: (§3)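 Seeds were sown in sterilized diluvial soil, covered with about 1.5 cm of soil, and the soil surface was sprayed with a water-diluted emulsion of the compound at a predetermined rate. Plants grew in a greenhouse at 25° C. to 30° C.; effects were scored visually 3 weeks after application.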

soybean = assay: Test Example 5: effect on crop by foliage application, plastic box (symbol d); details: 320 g/ha, 3 weeks after application
In short: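 Greenhouse culture at 25° C. to 30° C. followed spot-like sowing into sterilized diluvial soil, with seed covered by roughly 1.5 cm of soil.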

beet = assay: Test Example 4: effect on crop by soil treatment (symbol f); details: application herbicide amount 320 g/ha
In short: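 Steps: fill box with sterilized diluvial soil; sow seed spot-like; cover with ~1.5 cm soil; grow in greenhouse (25° C. to 30° C.).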

Scirpus juncoides [5] = assay: Test Example 1: herbicidal activity, application before weed generation in submerged conditions (symbol B); details: application herbicide amount 320 g/ha
In short: as §2

Alopecurus myosuroides [6] = assay: Test Example 4: herbicidal effect by soil treatment (symbol J); details: application herbicide amount 320 g/ha
In short: as §3

Chenopodium album = assay: Test Example 4: herbicidal effect by soil treatment (symbol O); details: application herbicide amount 320 g/ha
In short: as §3

CON=C(C)CC1CC(O)=C(c2c(C)cc(C)cc2OC)C1=O (stereo not drawn) [6-037, 3-hydroxy-2-(2-methoxy-4,6-dimethylphenyl)-5-{2-(methoxyimino)propyl}cyclopent-2-enone] was tested, and the “Herbicidal effect grade, B: Scirpus juncoides” value (from here on “Herbicidal effect grade, B”) (Scirpus juncoides [1]) was 4 (Herbicidal ratio of 70% or higher and lower than 90%), the “Effect grade on crop, a: transplanted rice plant” value (“Effect grade on crop” for short) (transplanted rice plant) was 5 (Herbicidal ratio of 90% or more (almost completely withered)) and the “H: Echinochloa crus-galli var. crus-galli, herbicidal effect grade” value [2] was 5 (Herbicidal ratio of 90% or more (almost completely withered)). For the same molecule, the “J: Alopecurus myosuroides, herbicidal effect grade” value (“J: Alopecurus myosuroides” for short) (Alopecurus myosuroides [3]) was 5 (Herbicidal ratio of 90% or more (almost completely withered)), the “Herbicidal effect grade, A: Echinochloa oryzacola Vasing.” value [4] was 5 (Herbicidal ratio of 90% or more (almost completely withered)) and the “Herbicidal effect grade, C: Monochoria vaginalis” value (from here on “Herbicidal effect grade, C”) (Monochoria vaginalis) was 4 (Herbicidal ratio of 70% or higher and lower than 90%). For the same molecule, the “G: Setaria viridis, herbicidal effect grade” value (shortened to “G: Setaria viridis”) (Setaria viridis) was 5 (Herbicidal ratio of 90% or more (almost completely withered)), the “d: soybean, effect on crop grade” value (soybean) was 4 (Herbicidal ratio of 70% or higher and lower than 90%) and the “f: beet, effect on crop grade” value (beet) was 0 (Herbicidal ratio of 5% or lower (almost no effect)). The “Herbicidal effect grade, B” value (Scirpus juncoides [5]) was 5 (Herbicidal ratio of 90% or more (almost completely withered)), the “J: Alopecurus myosuroides” value (Alopecurus myosuroides [6]) was 5 (Herbicidal ratio of 90% or more (almost completely withered)) and the “O: Chenopodium album, herbicidal effect grade” value (from here on “O: Chenopodium album”) (Chenopodium album) was 0 (Herbicidal ratio of 5% or lower (almost no effect)).

In the case of CON=C(C)CC1CC(O)=C(c2c(C)cc(C)cc2Br)C1=O (stereo not drawn) [6-038], the “Herbicidal effect grade, B” value (Scirpus juncoides [1]) is reported as 4 (Herbicidal ratio of 70% or higher and lower than 90%), the “Effect grade on crop” value (transplanted rice plant) is reported as 5 (Herbicidal ratio of 90% or more (almost completely withered)) and the “H: Echinochloa crus-galli var. crus-galli, herbicidal effect grade” value [2] is reported as 5 (Herbicidal ratio of 90% or more (almost completely withered)). The “J: Alopecurus myosuroides” value (Alopecurus myosuroides [3]) was 5 (Herbicidal ratio of 90% or more (almost completely withered)), the “Herbicidal effect grade, A: Echinochloa oryzacola Vasing.” value [4] was 5 (Herbicidal ratio of 90% or more (almost completely withered)) and the “Herbicidal effect grade, C” value (Monochoria vaginalis) was 3 (Herbicidal ratio of 40% or higher and lower than 70%). For the same molecule, the “G: Setaria viridis” value (Setaria viridis) was 4 (Herbicidal ratio of 70% or higher and lower than 90%), the “d: soybean, effect on crop grade” value (soybean) was 4 (Herbicidal ratio of 70% or higher and lower than 90%) and the “f: beet, effect on crop grade” value (beet) was 0 (Herbicidal ratio of 5% or lower (almost no effect)). For the same molecule, the “Herbicidal effect grade, B” value (Scirpus juncoides [5]) was 4 (Herbicidal ratio of 70% or higher and lower than 90%), the “J: Alopecurus myosuroides” value (Alopecurus myosuroides [6]) was 5 (Herbicidal ratio of 90% or more (almost completely withered)) and the “O: Chenopodium album” value (Chenopodium album) was 0 (Herbicidal ratio of 5% or lower (almost no effect)).

With CON=C(C)CC1CC(O)=C(c2c(C)cc(OCC(F)(F)F)cc2C)C1=O (stereo not drawn) [6-049] the “Herbicidal effect grade, B” value (Scirpus juncoides [1]) was 4 (Herbicidal ratio of 70% or higher and lower than 90%), the “Effect grade on crop” value (transplanted rice plant) was 5 (Herbicidal ratio of 90% or more (almost completely withered)) and the “H: Echinochloa crus-galli var. crus-galli, herbicidal effect grade” value [2] was 5 (Herbicidal ratio of 90% or more (almost completely withered)). For the same molecule, the “J: Alopecurus myosuroides” value (Alopecurus myosuroides [3]) was 5 (Herbicidal ratio of 90% or more (almost completely withered)), the “Herbicidal effect grade, A: Echinochloa oryzacola Vasing.” value [4] was 5 (Herbicidal ratio of 90% or more (almost completely withered)) and the “Herbicidal effect grade, C” value (Monochoria vaginalis) was 4 (Herbicidal ratio of 70% or higher and lower than 90%). For the same molecule, the “G: Setaria viridis” value (Setaria viridis) was 5 (Herbicidal ratio of 90% or more (almost completely withered)), the “d: soybean, effect on crop grade” value (soybean) was 2 (Herbicidal ratio of 20% or higher and lower than 40%) and the “f: beet, effect on crop grade” value (beet) was 3 (Herbicidal ratio of 40% or higher and lower than 70%). For the same molecule, the “Herbicidal effect grade, B” value (Scirpus juncoides [5]) was 5 (Herbicidal ratio of 90% or more (almost completely withered)), the “J: Alopecurus myosuroides” value (Alopecurus myosuroides [6]) was 5 (Herbicidal ratio of 90% or more (almost completely withered)) and the “O: Chenopodium album” value (Chenopodium album) was 4 (Herbicidal ratio of 70% or higher and lower than 90%).
